In the NIST ThermoML archive (doi:10.1021/je800439e):
Where “and” joins values, the source holds several entries; their conditions need not be identical. Equal values may be shown once.

Columns and labels:
[1] = 101 kPa, Liquid
[2] = xn = mol fraction of the nth substance listed; details: 101 kPa, Liquid

Cc1c(C)c2c(c(C)c1O)CCC(C)(CCCC(C)CCCC(C)CCCC(C)C)O2 (racemic) [dl-α-tocopherol]
[1]
Details	viscosity
278.15 K	37128 mPa·s
284.15 K	15242 mPa·s
290.15 K	6380 mPa·s and 6380.1 mPa·s
296.15 K	3017.5 mPa·s
302.15 K	1531 mPa·s
308.15 K	814.81 mPa·s
314.15 K	454.58 mPa·s
320.15 K	283.56 mPa·s
325.15 K	187.51 mPa·s
330.15 K	129.2 mPa·s
335.15 K	92.65 mPa·s
340.15 K	67.32 mPa·s
345.15 K	49.98 mPa·s
350.15 K	37.4 mPa·s

CCCCCc1ccc(C2CCC(CCC)CC2)cc1 (configuration not stated) [1-pentyl-4-(4-propylcyclohexyl)-benzene]
[1]
Details	viscosity [mPa·s]
278.15 K	27.74
284.15 K	21.48
290.15 K	16.95
296.15 K	13.5
302.15 K	11.09
308.15 K	9.21
314.15 K	7.64
320.15 K	6.58
325.15 K	6.01
330.15 K	5.19
335.15 K	4.57
340.15 K	4.13
345.15 K	3.68
350.15 K	3.29

Cc1cc(C)cc(C)c1 [1,3,5-trimethylbenzene]
[1]
Details	viscosity [mPa·s]
278.15 K	0.85
284.15 K	0.8
290.15 K	0.75
296.15 K	0.63
302.15 K	0.57
308.15 K	0.53
314.15 K	0.49
320.15 K	0.46
325.15 K	0.44
330.15 K	0.41
335.15 K	0.4
340.15 K	0.39
345.15 K	0.35
350.15 K	0.34

CCCCCc1ccc(C2CCC(CCC)CC2)cc1 (configuration not stated) [1-pentyl-4-(4-propylcyclohexyl)-benzene] + Cc1c(C)c2c(c(C)c1O)CCC(C)(CCCC(C)CCCC(C)CCCC(C)C)O2
viscosity [mPa·s], [2]
Details	x2 = 0	x2 = 0.2058	x2 = 0.4023	x2 = 0.6026	x2 = 0.8018
278.15 K	27.74	75.95	384.28	1270.6	7471.9
284.15 K	21.48	53.48	231.6	794.38	3488.2
290.15 K	16.95	38.25	145.52	441.94	1669.9
296.15 K	13.5	28.1	96.37	266.41	911.16
302.15 K	11.09	21.57	65.92	163.27	485.33
308.15 K	9.21	16.8	46.14	106.33	278.53
314.15 K	7.64	13.17	33.91	71.05	173.09
320.15 K	6.58	10.98	26.01	51.66	120.77
325.15 K	6.01	9.33	20.65	39.36	82.86
330.15 K	5.19	7.98	16.86	30.2	61.04
335.15 K	4.57	6.85	14.03	24.08	46.15
340.15 K	4.13	6.04	11.75	19.47	35.24
345.15 K	3.68	5.37	9.97	16.1	27.32
350.15 K	3.29	4.7	8.55	13.3	22.24
